Laboratory results as given in ChEMBL document CHEMBL2074482 (J Pharmacol Sci, 2004).

Experiments:
[1] = target: T1, Solute carrier family 22 member 11 (Homo sapiens, UniProt Q9NSA0); test: TP_TRANSPORTER: inhibition of ES uptake (ES: 50nM) in hOAT4-expressing S2 cells; type: functional, cell-based
T1 sequence (Q9NSA0 whole entry): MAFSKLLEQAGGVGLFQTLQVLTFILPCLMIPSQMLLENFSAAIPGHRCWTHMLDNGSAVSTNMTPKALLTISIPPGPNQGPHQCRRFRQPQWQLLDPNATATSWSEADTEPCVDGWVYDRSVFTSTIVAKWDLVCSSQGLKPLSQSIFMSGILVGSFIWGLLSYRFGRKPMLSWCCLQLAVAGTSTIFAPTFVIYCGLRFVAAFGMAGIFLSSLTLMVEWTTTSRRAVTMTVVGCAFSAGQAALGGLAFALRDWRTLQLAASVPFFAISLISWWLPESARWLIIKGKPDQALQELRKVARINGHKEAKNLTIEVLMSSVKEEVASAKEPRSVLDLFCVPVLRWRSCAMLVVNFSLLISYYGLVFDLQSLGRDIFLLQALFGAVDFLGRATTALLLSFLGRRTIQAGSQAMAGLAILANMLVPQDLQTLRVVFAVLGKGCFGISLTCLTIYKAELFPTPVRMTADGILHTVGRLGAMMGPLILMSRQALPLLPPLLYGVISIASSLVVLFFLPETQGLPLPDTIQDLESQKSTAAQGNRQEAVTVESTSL

[2] = target: T2, Organic anion transporter 3 (Homo sapiens, UniProt Q8TCC7); test: TP_TRANSPORTER: inhibition of ES uptake (ES: 50nM) in hOAT3-expressing S2 cells; type: functional, cell-based
T2 sequence (Q8TCC7 whole entry): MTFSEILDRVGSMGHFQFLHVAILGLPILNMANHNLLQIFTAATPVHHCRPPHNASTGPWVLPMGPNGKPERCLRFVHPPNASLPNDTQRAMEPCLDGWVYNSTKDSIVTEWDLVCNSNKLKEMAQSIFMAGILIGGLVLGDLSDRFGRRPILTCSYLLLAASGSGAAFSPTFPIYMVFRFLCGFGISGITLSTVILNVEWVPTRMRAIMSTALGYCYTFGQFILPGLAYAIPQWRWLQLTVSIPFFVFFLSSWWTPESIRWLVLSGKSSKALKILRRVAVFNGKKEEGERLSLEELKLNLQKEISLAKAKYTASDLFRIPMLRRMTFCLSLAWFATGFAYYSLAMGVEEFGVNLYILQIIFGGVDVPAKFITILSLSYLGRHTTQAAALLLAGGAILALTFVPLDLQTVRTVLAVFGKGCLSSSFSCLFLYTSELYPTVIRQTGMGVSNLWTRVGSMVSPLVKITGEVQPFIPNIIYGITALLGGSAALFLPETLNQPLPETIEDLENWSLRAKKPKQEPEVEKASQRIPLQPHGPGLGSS

[3] = target: T3, Organic anion transporter 3 (Rattus norvegicus, UniProt Q9R1U7); test: TP_TRANSPORTER: inhibition of ES uptake (ES: 50nM) in rOAT3-expressing S2 cells; type: functional, cell-based
T3 sequence (Q9R1U7 whole entry): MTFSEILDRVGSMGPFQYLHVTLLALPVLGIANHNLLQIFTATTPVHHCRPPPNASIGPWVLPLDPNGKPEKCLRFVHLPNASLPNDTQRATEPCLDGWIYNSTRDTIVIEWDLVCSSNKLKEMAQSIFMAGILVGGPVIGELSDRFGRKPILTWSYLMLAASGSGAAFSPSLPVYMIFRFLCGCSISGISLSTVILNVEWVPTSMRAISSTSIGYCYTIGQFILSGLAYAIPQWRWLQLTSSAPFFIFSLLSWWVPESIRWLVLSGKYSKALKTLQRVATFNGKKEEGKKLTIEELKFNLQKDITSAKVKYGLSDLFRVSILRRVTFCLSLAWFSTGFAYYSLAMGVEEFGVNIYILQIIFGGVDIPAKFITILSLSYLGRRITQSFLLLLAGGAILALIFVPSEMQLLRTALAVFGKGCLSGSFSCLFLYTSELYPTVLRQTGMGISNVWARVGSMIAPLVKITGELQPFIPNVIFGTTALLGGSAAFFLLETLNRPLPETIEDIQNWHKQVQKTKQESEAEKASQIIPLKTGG

[4] = target: T4, Solute carrier family 22 member 7 (Rattus norvegicus, UniProt Q5RLM2); test: TP_TRANSPORTER: inhibition of PGF2alpha uptake (PGF2: 50nM) in rOAT2-expressing S2 cells; type: functional, cell-based
T4 sequence (Q5RLM2 whole entry): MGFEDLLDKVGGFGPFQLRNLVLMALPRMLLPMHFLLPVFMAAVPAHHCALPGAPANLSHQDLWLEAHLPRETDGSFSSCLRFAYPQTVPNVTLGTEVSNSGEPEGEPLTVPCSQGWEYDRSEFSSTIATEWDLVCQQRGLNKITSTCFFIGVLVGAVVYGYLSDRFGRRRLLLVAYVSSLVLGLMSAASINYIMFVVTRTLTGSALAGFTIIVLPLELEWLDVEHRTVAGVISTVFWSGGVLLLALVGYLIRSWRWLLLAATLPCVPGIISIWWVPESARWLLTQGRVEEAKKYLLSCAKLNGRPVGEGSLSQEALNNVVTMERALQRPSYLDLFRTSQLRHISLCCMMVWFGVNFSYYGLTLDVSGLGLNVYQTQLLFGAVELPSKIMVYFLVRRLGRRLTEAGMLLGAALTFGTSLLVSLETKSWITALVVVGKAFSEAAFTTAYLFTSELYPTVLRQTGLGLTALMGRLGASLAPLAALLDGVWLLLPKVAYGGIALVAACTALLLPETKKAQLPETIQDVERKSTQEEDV

[5] = target: T5, Solute carrier family 22 member 7 (Homo sapiens, UniProt Q9Y694); test: TP_TRANSPORTER: inhibition of PGF2alpha uptake (PGF2: 50nM) in hOAT2-expressing S2 cells; type: functional, cell-based
T5 sequence (Q9Y694 whole entry): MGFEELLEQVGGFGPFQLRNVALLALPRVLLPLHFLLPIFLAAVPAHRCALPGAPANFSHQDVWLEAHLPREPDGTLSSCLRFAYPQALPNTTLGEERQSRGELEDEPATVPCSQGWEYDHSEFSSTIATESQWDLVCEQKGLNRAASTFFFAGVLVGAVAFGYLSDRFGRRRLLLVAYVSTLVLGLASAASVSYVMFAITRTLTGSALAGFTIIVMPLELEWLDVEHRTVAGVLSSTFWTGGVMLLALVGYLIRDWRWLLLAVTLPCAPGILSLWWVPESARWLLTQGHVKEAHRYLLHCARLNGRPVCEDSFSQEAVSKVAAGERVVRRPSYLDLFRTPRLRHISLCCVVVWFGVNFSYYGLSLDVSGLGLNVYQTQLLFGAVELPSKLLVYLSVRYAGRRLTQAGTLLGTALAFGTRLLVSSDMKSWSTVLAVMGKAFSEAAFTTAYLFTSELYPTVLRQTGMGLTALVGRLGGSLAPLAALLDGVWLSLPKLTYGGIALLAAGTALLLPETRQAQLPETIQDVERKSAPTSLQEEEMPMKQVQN

[6] = target: T6, Solute carrier family 22 member 6 (Rattus norvegicus, UniProt O35956)
T6 sequence (O35956 whole entry): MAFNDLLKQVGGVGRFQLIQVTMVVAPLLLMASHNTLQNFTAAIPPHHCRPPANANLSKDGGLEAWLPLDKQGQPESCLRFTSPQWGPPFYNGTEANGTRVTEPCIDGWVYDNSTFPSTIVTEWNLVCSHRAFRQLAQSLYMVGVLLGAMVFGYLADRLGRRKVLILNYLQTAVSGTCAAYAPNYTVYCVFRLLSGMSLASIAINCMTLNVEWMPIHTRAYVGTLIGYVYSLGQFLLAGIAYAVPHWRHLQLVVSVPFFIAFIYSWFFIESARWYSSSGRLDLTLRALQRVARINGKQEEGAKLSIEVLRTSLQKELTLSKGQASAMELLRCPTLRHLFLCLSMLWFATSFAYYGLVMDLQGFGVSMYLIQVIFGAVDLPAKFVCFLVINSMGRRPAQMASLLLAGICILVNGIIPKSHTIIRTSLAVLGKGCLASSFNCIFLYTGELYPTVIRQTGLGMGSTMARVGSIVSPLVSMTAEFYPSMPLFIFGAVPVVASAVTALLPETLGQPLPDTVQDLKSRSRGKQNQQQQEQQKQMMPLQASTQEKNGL

SMILES | IC50 [1] | IC50 [2] | IC50 [3] | IC50 [4] | IC50 [5] | IC50 [6]
O=C(O)CCNC(=O)c1ccccc1 [BETAMIPRON] | 483 µM | 9.92 µM | 47.5 µM |  |  | 
CCCN(CCC)S(=O)(=O)c1ccc(C(=O)O)cc1 [PROBENECID] |  |  | 6.03 µM | 977 µM | 668 µM | 
CN/C(=N/CCSCc1nc[nH]c1C)NC#N [CIMETIDINE] | > 2000 µM | 92.4 µM | 166 µM |  |  | > 2000 µM
CC[C@H](C)C(=O)O[C@H]1C[C@H](O)C=C2C=C[C@H](C)[C@H](CC[C@@H](O)C[C@@H](O)CC(=O)O)[C@H]21 [PRAVASTATIN] | 591 µM | 13.7 µM | 15.6 µM | 449 µM | 352 µM | 
CC1(C)C[C@@H]1C(=O)N/C(=C\CCCCSC[C@H](N)C(=O)O)C(=O)O [CILASTATIN] |  | 249 µM | 742 µM |  |  | 
